Where no end group is shown, it is not given here.

The data set concerns NASH model mice (MC4R-KO mice fed a high-fat diet). Put plainly: Body weight and liver weight of NASH model mice. The format is in vivo, mouse. The following applies: 5 mg/kg tail vein injection twice a week for four weeks, t-test. An excerpt: Melanocortin-4 receptor knockout mice (hereinafter also referred to as “MC4R-KO mice,” genetic background: C57BL/6J) were provided by Dr. Joel K Elmquist of University of Texas, Medical Center.
Subsequently, NASH was induced in the mice by feeding a high-fat diet to the MC4R-KO mice, as detailed in the below reference. […] Later, the diet was switched from the normal diet to a high-fat diet (HFD) and the high-fat diet was fed for 20 weeks. Thereby, NASH was developed in the mice. • Itoh M, Suganami T, Nakagawa N, et al. Melanocortin 4 receptor-deficient mice as a novel mouse model of nonalcoholic steatohepatitis. Am J Pathol 2011; 179: 2454-63.
Here, CE-2 (manufactured by CLEA Japan, Inc.) was used as the normal diet, and Western Diet (manufactured by EPS EKISHIN Co., Ltd., containing 0.21% of cholesterol+41% kcal of milk fat) was used as the high-fat diet.
Experiments were carried out by dividing the mice into two groups of an HMGB1 peptide administration group (HMGB1 administration group) and a control group (normal saline; NS administration; CTRL administration group). […]
The mice were euthanized twenty weeks after initiating the high-fat diet, and arterial blood was collected from the heart of the mice. […] In all of the following statistical analyses, significance was calculated by a t-test.

Turning to “MGKGDPKKPRGKMSSYAFFVQTCREEHKKKHPDASVNFSEFSKK [HMGB1 peptide]”, the “change of the body weight” value (from initiating administration until completion of breeding, vs control group) is “significant differences were not observed”. Besides, the body weight result (twenty weeks after initiating high-fat diet, vs control group (normal saline)) is listed as “significant differences were not observed”.
